Measured values reported in patent US8377458B2, “Cooling sensation agent composition, sensory stimulation agent composition and use of the same” (Takasago International Corporation, priority 2009, dated 2013).

Assays:
[1] = test system: inside of upper parts of arms; experiment: Test of a cooling towel (washing processed), sensory evaluation; type: in vivo, human (panelists); settings: for total score of the ranking numbers (cooling effect on treated hand towel after washing): 1% in washing detergent
Experimental: The hand towel thus prepared and those after further air-dried for 24 hours or 48 hours were brought into contact with the inside of upper parts of arms, and the cooling action thereof was determined organoleptically. Meanwhile, the evaluation was carried out by five panelists having 5 years or longer experience. The above compounds, mixtures and menthoxypropanediol were divided into three groups of A to C (group A; […] The results are shown by the total score of the ranking numbers. […] In other words, smaller total score means to show a better cooling sensation effect.

[2] = test system: inside of upper parts of arms; experiment: Test of a cooling towel (direct spraying), sensory evaluation; type: in vivo, human (panelists)
Experimental: Those which were air-dried for 10 minutes, 3 hours or 24 hours after spraying were sensory evaluated. The sensory evaluation was carried out by touching the cooling towel with the inside of upper parts of arms, and cooling action at that time was determined. Meanwhile, the evaluation was carried out by five panelists having 5 years or longer experience. […] The results are shown by the total score of the ranking numbers. In other words, smaller total score means to show a better cooling sensation effect.

[3] = Group C, after 6 hr, smaller = better
[4] = Group C, after 24 hr, smaller = better
[5] = Group C, after 48 hr, smaller = better
[6] = Group C, direct spraying, after 10 min air drying, smaller = better
[7] = Group C, direct spraying, after 3 hr air drying, smaller = better
[8] = Group C, direct spraying, after 24 hr air drying, smaller = better
[9] = Group A (5 samples ranked by 5 panelists, smaller = better), direct spraying 1 g of 1% ethanol solution, after 10 min air drying
[10] = Group A, direct spraying, after 3 hr air drying, smaller = better
[11] = Group A, direct spraying, after 24 hr air drying, smaller = better
[12] = Group B, direct spraying, after 10 min air drying, smaller = better
[13] = Group B, direct spraying, after 3 hr air drying, smaller = better
[14] = Group B, direct spraying, after 24 hr air drying, smaller = better
[15] = Group A (4 samples ranked by 5 panelists, smaller = better), after 6 hr air drying
[16] = Group A, after 24 hr, smaller = better
[17] = Group A, after 48 hr, smaller = better
[18] = Group B, after 6 hr, smaller = better
[19] = Group B, after 24 hr, smaller = better
[20] = Group B, after 48 hr, smaller = better

Structure (SMILES)	total score of the ranking numbers (cooling effect on treated hand towel after washing) [1, 3]	total score of the ranking numbers (cooling effect on treated hand towel after washing) [1, 4]	total score of the ranking numbers (cooling effect on treated hand towel after washing) [1, 5]	total score of the ranking numbers (cooling effect on treated hand towel) [2, 6]	total score of the ranking numbers (cooling effect on treated hand towel) [2, 7]	total score of the ranking numbers (cooling effect on treated hand towel) [2, 8]	total score of the ranking numbers (cooling effect on treated hand towel) [2, 9]	total score of the ranking numbers (cooling effect on treated hand towel) [2, 10]	total score of the ranking numbers (cooling effect on treated hand towel) [2, 11]	total score of the ranking numbers (cooling effect on treated hand towel) [2, 12]	total score of the ranking numbers (cooling effect on treated hand towel) [2, 13]	total score of the ranking numbers (cooling effect on treated hand towel) [2, 14]	total score of the ranking numbers (cooling effect on treated hand towel after washing) [1, 15]	total score of the ranking numbers (cooling effect on treated hand towel after washing) [1, 16]	total score of the ranking numbers (cooling effect on treated hand towel after washing) [1, 17]	total score of the ranking numbers (cooling effect on treated hand towel after washing) [1, 18]	total score of the ranking numbers (cooling effect on treated hand towel after washing) [1, 19]	total score of the ranking numbers (cooling effect on treated hand towel after washing) [1, 20]	further results
CC(C)=CCCC(C)CCOC(=O)CCC(=O)OC1CC(C)CCC1C(C)C (stereo not drawn) [Compound 4, l-menthyl-(l-citronellyl)succinic ester]	10	12	11	16	18	16													
CC(C)[C@@H]1CC[C@@H](C)C[C@H]1O [Compound 1-Menthol, l-menthol, reference compound]							6	24	25	7	24	25							cooling action (in words) ([2]; direct spraying, after air drying for 10 minutes): strongest cooling action; lasting / consistency of cooling action (in words) ([2]; direct spraying, over 10 min to 24 hr): less consistent
CC1CCC(C(C)C)C(OCCOC(=O)CCC(=O)OC2CC(C)CCC2C(C)C)C1 (stereo not drawn) [Compound 1, l-menthyl-(l-menthoxyethyl)succinic ester]							18	12	11				11	10	13				
CC1CCC(C(C)C)C(OC(=O)CCCC(=O)OC2CC(C)CCC2C(C)C)C1 (stereo not drawn) [Dimenthylglutaric acid, reference compound]				22	21	23	22	20	21	22	20	19							
CC1CCC(C(C)C)C(OC(=O)CCCC(=O)OCCc2ccccc2)C1 (stereo not drawn) [Compound 6, l-menthyl-(phenylethyl)glutaric ester]										17	14	14				13	14	14	
CC(C)=CCCC(C)CCOC(=O)CCCC(=O)OC1CC(C)CCC1C(C)C (stereo not drawn) [Compound 7, l-menthyl-(l-citronellyl)glutaric ester]				15	17	18													
CC1CCC(C(C)C)C(OCC(O)CO)C1 (stereo not drawn) [Menthoxypropanediol, l-menthoxypropanediol, reference compound]	19	20	19										19	20	19	18	19	20	cooling action (in words) ([1]; after the washing treatment and 6 hours of air drying): almost no cooling action was observed
C=C(C)C1CCC(C)CC1OC(=O)CCC(=O)OC1CC(C)CCC1C(C)C (stereo not drawn) [Compound 3, l-menthyl-(l-isopulegyl)succinic ester]										16	10	10				11	10	10	
CC1CCC(C(C)C)C(OCCOC(=O)CCCC(=O)OC2CC(C)CCC2C(C)C)C1 (stereo not drawn) [Compound 8, l-menthyl-(l-menthoxyethyl)-glutaric ester]	13	13	13	13	12	11													
CC(C)[C@@H]1CC[C@@H](C)C[C@H]1OCC(O)COC(=O)CCC(=O)O[C@@H]1C[C@H](C)CC[C@H]1C(C)C (stereo partly drawn) [Compound 2, l-menthyl-3-(l-menthoxy)-2-(hydroxypropyl)succinic ester]							18	13	13				13	11	12				
